Results taken from US6458781B1, “Substituted diarylalkyl amides as calcium channel antagonists” (priority 1998, dated 2002).
Structures can show the parent of a compound that is named as a salt.

Row | SMILES | melting point [°C]
1 | CC(C)C[C@@H](C(=O)NCCC(c1ccccc1)c1ccccc1)N(C)C1CCCCC1 (as salt: hydrochloride) [Example 25, (S)-2-(Cyclohexyl-methyl-amino)-4-methyl-pentanoic acid (3,3-diphenyl-propyl)-amide monohydrochloride] | 67 to 86
2 | CC(C)C[C@@H](C(=O)NCCCC(c1ccc(F)cc1)c1ccc(F)cc1)N(C)C1CCCCC1 (as salt: hydrochloride) [Example 21, (S)-2-(Cyclohexyl-methyl-amino)-4-methyl-pentanoic acid [4,4-bis-(4-fluoro-phenyl)-butyl]-amide monohydrochloride] | 73 to 83
3 | CC(C)C[C@@H](C(=O)NCCCC(c1ccc(F)cc1)c1ccc(F)cc1)N(C)C (as salt: hydrochloride) [Example 20, (S)-2-Dimethylamino-4-methyl-pentanoic acid [4,4-bis-(4-fluoro-phenyl)-butyl]-amide monohydrochloride] | 60 to 72
4 | CC(C)=CCN(C)[C@@H](CC(C)C)C(=O)NCCCC(c1ccc(F)cc1)c1ccc(F)cc1 (as salt: hydrochloride) [Example 13, (S)-4-Methyl-2-[methyl-(3-methyl-but-2-enyl)-amino]-pentanoic acid [4,4-bis-(4-fluoro-phenyl)-butyl]-amide monohydrochloride] | 55 to 68
5 | CC(C)C[C@H](NC(C)C)C(=O)N1CCN(C(c2ccc(F)cc2)c2ccc(F)cc2)CC1 (as salt: hydrochloride) [Example 49, (S)-1-{4-[Bis-(4-fluoro-phenyl)-methyl]-piperazin-1-yl}-2-isopropylamino-4-methyl-pentan-1-one monohydrochloride] | 100 to 103
6 | CC(C)C[C@@H](C(=O)NCCCC(c1ccc(F)cc1)c1ccc(F)cc1)N1CCOCC1 (as salt: hydrochloride) [Example 23, (S)-4-Methyl-2-morpholin-4-yl-pentanoic acid [4,4-bis-(4-fluoro-phenyl)-butyl]-amide monohydrochloride] | 63 to 78
7 | CC(C)C[C@H](NC(C)C)C(=O)NCCCC(c1ccc(F)cc1)c1ccc(F)cc1 (as salt: hydrochloride) [Example 19, (S)-2-Isopropylamino-4-methyl-pentanoic acid [4,4-bis-(4-fluoro-phenyl)-butyl]-amide monohydrochloride] | 100 to 103

The next lines start with the values.

Row | melting point [°C] | SMILES
8 | 82 to 86 | CC(C)[C@@H](C(=O)NCCCC(c1ccc(F)cc1)c1ccc(F)cc1)N(C)C1CCCCC1 (as salt: hydrochloride) [Example 69, (S)-N-[4,4-Bis-(4-fluoro-phenyl)-butyl]-2-(cyclohexyl-methyl-amino)-3-methyl-butyramide]
9 | 72 to 80 | CC(C)N[C@H](C(=O)NCCCC(c1ccc(F)cc1)c1ccc(F)cc1)C(C)C (as salt: hydrochloride) [Example 65, (S)-N-[4,4-Bis-(4-fluoro-phenyl)-butyl]-2-isopropylamino-3-methyl-butyramide]
10 | 155 to 156 | CC(C)C[C@@H](C(=O)NCCCC(c1ccc(F)cc1)c1ccc(F)cc1)N(C)C(C)C (as salt: hydrochloride) [Example 68, (S)-2-(Isopropyl-methyl-amino)-4-methyl-pentanoic acid [4,4-bis-(4-fluoro-phenyl)-butyl]-amide]
11 | 77 to 81 | CCC(C)N[C@H](C(=O)NCCCC(c1ccc(F)cc1)c1ccc(F)cc1)C(C)C (stereo partly drawn) (as salt: hydrochloride) [Example 66, (S)-N-[4,4-Bis-(4-fluoro-phenyl)-butyl]-2-sec-butylamino-3-methyl-butyramide]
12 | 49 to 53 | CC(C)[C@H](NC1CCCCC1)C(=O)NCCCC(c1ccc(F)cc1)c1ccc(F)cc1 (as salt: hydrochloride) [Example 70, (S)-N-[4,4-Bis-(4-fluoro-phenyl)-butyl]-2-cyclohexylamino-3-methyl-butyramide]
